Tests used:
Assay type in all cases: in vivo, Mus Musculus
[1] = tested on: Diet-Induced Obese (DIO) Mice; assay: Fasting plasma glucose in diet-induced obese mice
[2] = tested on: Diet-Induced Obese (DIO) Mice; assay: ipGTT (glucose tolerance) in diet-induced obese mice
[3] = Body weight of treated diet-induced obese mice; conditions: Day 0 or Day 13, DIO mice
Experimental: (§1) Male C57Bl/6J mice were obtained at 8 weeks of age from Animal Resources Centre (Canning Vale, Western Australia). Animals were individually housed and allowed free movement and ad libitum access to water and food. Animals were maintained on a 12 hour light (6 am-6 pm) and 12 hour dark (6 pm-6 am) cycle. Animals were monitored daily. Body weight, food and water intake were recorded 3 times a week.

db/db mice = assay: Fasting plasma glucose in db/db mice; conditions: for FPG Day 0: Methazolamide 20 mg/kg group
Description: The db/db mouse model comprises mice with a homozygous mutation of the leptin receptor gene that ablates leptin signalling in the hypothalamus and elsewhere. The db/db mouse model is commonly used to study the genetic and physiological mechanisms of obesity and type II diabetes. […] Leptin acts through the leptin receptor to control whole-body energy homeostasis by regulating both appetite and energy expenditure. Loss of function of the leptin receptor gene results in hyperphagia and slower metabolism, leading to obesity and eventually diabetes. […] Dosing solutions of the test articles: Methazolamide, Metformin and Methazolamide/Metformin were prepared fresh on each dosing day and stored at room temperature, protected from light. The compound was formulated in sterile vehicle: […] Stock solutions were prepared by dissolving the compound in NMP:PEG300 (1:2, v/v). Saline was added to the stock solution prior to administration of the compound. The solutions were mixed by vortexing immediately prior to dosing to ensure a homogeneous suspension of the compound. Male C57Bl/6J db/db mice were obtained at 10 weeks of age from Animal Resources Centre ([…], Western Australia). Animals were individually housed and allowed free movement and ad libitum access to water and food. Animals were maintained on a 12 hour light (6 am-6 pm) and 12 hour dark (6 pm-6 am) cycle. Animals were monitored daily. Body weight, food and water intake were recorded 3 times a week. Mice were fed a standard chow diet, and used after a two week acclimatisation period. […] The fasting plasma glucose levels of the animals was tested prior to commencement of the study and then every 3-4 days during dosing. The animals were fasted for a period of 4 hours after dosing and prior to the taking of a blood sample via a tail nick. Blood glucose levels were monitored using commercially available glucometers (Accuchek Advantage, Roche) based on the electric current generated when a blood drop is spotted on a test strip resulting in conversion of the glucose present in the sample to gluconolactone by the glucose dehydrogenase enzyme, in the presence of the coenzyme (PQQ).

[4] = Body weight of treated db/db mice; conditions: Day 0, Day 8 or Day 18, db/db mice
Experimental: as §1, with “C57Bl/6J db/db” for “C57Bl/6J”, “10” for “8”, “([…],” for “(Canning Vale,”, “week. Mice were fed a standard chow diet, and used after a two week acclimatisation period.” for “week.”

[5] = Methazolamide 10 mg/kg oral gavage (Table 5-1)
[6] = Methazolamide 10 mg/kg oral gavage (Table 8-1)
[7] = Methazolamide 20 mg/kg group, before dosing
[8] = Methazolamide 20 mg/kg oral gavage
[9] = Methazolamide 50 mg/kg group, before dosing
[10] = Methazolamide 50 mg/kg oral gavage
[11] = Methazolamide 100 mg/kg group, before dosing
[12] = Methazolamide 100 mg/kg oral gavage
[13] = Methazolamide 10 mg/kg oral gavage (Table 5-2)
[14] = Methazolamide 10 mg/kg oral gavage (Table 8-2)

**Q.** Which “effect on fasting plasma glucose levels of diet-induced obese mice” value [1] does the source give for `CC(=O)/N=c1\sc(S(N)(=O)=O)nn1C` [Methazolamide, 5-acetylimino-4-methyl-Δ^2-1,3,4-thiadiazoline-2-sulfonamide] here?
**A.** The value was “reduced the fasting plasma glucose levels”.

**Q.** And the “FPG Day −1” value ([1]; Methazolamide 10 mg/kg group, before dosing (Table 5-1))?
**A.** Its value is 6.92 ± 0.55 mM.

**Q.** What about the “FPG Day −1” value ([1]; Methazolamide 10 mg/kg group, before dosing (Table 8-1)) of the same molecule?
**A.** Its value is 6.1 ± 0.5 mM.

**Q.** And the “Delta FPG Treatment Day 13 vs Day −1” value [1, 5]?
**A.** The value was 12%.

**Q.** And the “FPG Day 13” value [1, 5]?
**A.** The value was 7.75 ± 0.43 mM.

**Q.** And the “FPG Treatment vs Vehicle Day 13” value [1, 5]?
**A.** Its value is 1%.

**Q.** And the “Delta FPG Treatment Day 13 vs Day −1” value [1, 6]?
**A.** The value was 8%.

**Q.** And the “Delta FPG Treatment vs Vehicle Day 13” value [1, 6]?
**A.** The value was −12%.

**Q.** What about the “FPG Day 13” value [1, 6] of the same molecule?
**A.** The value was 6.6 ± 0.4 mM.

**Q.** What about the “FPG Day −1” value [1, 7] of the same molecule?
**A.** Its value is 7.28 ± 0.47 mM.

**Q.** And the “Delta FPG Treatment Day 13 vs Day −1” value [1, 8]?
**A.** The value was −5%.

**Q.** And the “FPG Day 13” value [1, 8]?
**A.** Its value is 6.90 ± 0.24 mM.

**Q.** What about the “FPG Treatment vs Vehicle Day 13” value [1, 8] of the same molecule?
**A.** Its value is −10%^.

**Q.** What about the “FPG Day −1” value [1, 9] of the same molecule?
**A.** The value was 7.20 ± 0.71 mM.

**Q.** What about the “Delta FPG Treatment Day 13 vs Day −1” value [1, 10] of the same molecule?
**A.** The value was −13%.

**Q.** What about the “FPG Day 13” value [1, 10] of the same molecule?
**A.** Its value is 6.28 ± 0.31 mM.

**Q.** And the “FPG Treatment vs Vehicle Day 13” value [1, 10]?
**A.** Its value is −18%^1.

**Q.** What about the “FPG Day −1” value [1, 11] of the same molecule?
**A.** Its value is 7.63 ± 0.55 mM.

**Q.** And the “Delta FPG Treatment Day 13 vs Day −1” value [1, 12]?
**A.** The value was −21%.

**Q.** What about the “FPG Day 13” value [1, 12] of the same molecule?
**A.** Its value is 6.05 ± 0.15 mM.

**Q.** And the “FPG Treatment vs Vehicle Day 13” value [1, 12]?
**A.** Its value is −21%^2.

**Q.** And the “effect on glucose tolerance of diet-induced obese mice” value [2]?
**A.** The value was “increased the glucose tolerance”.

**Q.** And the “AUC Day −1” value ([2]; Methazolamide 10 mg/kg group, before dosing (Table 5-2))?
**A.** The value was 1038 ± 129 mM·min.

**Q.** And the “AUC Day −1” value ([2]; Methazolamide 10 mg/kg group, before dosing (Table 8-2))?
**A.** Its value is 1190 ± 62 mM·min.

**Q.** And the “AUC Day 13” value [2, 13]?
**A.** The value was 901 ± 139 mM·min.

**Q.** What about the “Delta AUC Treatment Day 13 vs Day −1” value [2, 13] of the same molecule?
**A.** Its value is −13%^.

**Q.** What about the “Delta AUC Treatment vs Vehicle Day 13” value [2, 13] of the same molecule?
**A.** The value was −8%.

**Q.** And the “AUC Day 13” value [2, 14]?
**A.** The value was 1131 ± 95 mM·min.

**Q.** And the “AUC Day 13 Treat vs Veh” value [2, 14]?
**A.** The value was −6%.

**Q.** And the “Delta AUC Day 13 vs Day −1” value [2, 14]?
**A.** Its value is −5%.

**Q.** What about the “AUC Day −1” value [2, 7] of the same molecule?
**A.** The value was 1070 ± 77 mM·min.

**Q.** What about the “AUC Day 13” value [2, 8] of the same molecule?
**A.** The value was 619 ± 106 mM·min.

**Q.** And the “Delta AUC Treatment Day 13 vs Day −1” value [2, 8]?
**A.** Its value is −42%^1.

**Q.** And the “Delta AUC Treatment vs Vehicle Day 13” value [2, 8]?
**A.** Its value is −37%^1.

**Q.** And the “AUC Day −1” value [2, 9]?
**A.** Its value is 1073 ± 112 mM·min.

**Q.** What about the “AUC Day 13” value [2, 10] of the same molecule?
**A.** Its value is 710 ± 87 mM·min.

**Q.** What about the “Delta AUC Treatment Day 13 vs Day −1” value [2, 10] of the same molecule?
**A.** Its value is −34%^1.

**Q.** What about the “Delta AUC Treatment vs Vehicle Day 13” value [2, 10] of the same molecule?
**A.** The value was −27%^1.

**Q.** And the “AUC Day −1” value [2, 11]?
**A.** Its value is 1080 ± 59 mM·min.

**Q.** What about the “AUC Day 13” value [2, 12] of the same molecule?
**A.** Its value is 691 ± 60 mM·min.

**Q.** And the “Delta AUC Treatment Day 13 vs Day −1” value [2, 12]?
**A.** Its value is −36%^2.

**Q.** What about the “Delta AUC Treatment vs Vehicle Day 13” value [2, 12] of the same molecule?
**A.** The value was −29%^1.

**Q.** What about the “difference in body weight between treated groups” value [3] of the same molecule?
**A.** The value was “no difference in body weight”.

**Q.** And the “FPG Day 0” value (db/db mice; before dosing (Table 9-1))?
**A.** Its value is 23.93 ± 1.6 mM.

**Q.** What about the “FPG Day 0” value (db/db mice; before dosing (Table 9-2)) of the same molecule?
**A.** The value was 23.93 ± 1.6 mM.

**Q.** And the “Delta FPG Treatment Day 8 vs Day 0” value (db/db mice; [8])?
**A.** Its value is −32%^1.

**Q.** What about the “Delta FPG Treatment Day 18 vs Day 0” value (db/db mice; [8]) of the same molecule?
**A.** Its value is −29%^1.

**Q.** And the “FPG Day 8” value (db/db mice; [8])?
**A.** Its value is 16.30 ± 1.8 mM.

**Q.** What about the “FPG Day 18” value (db/db mice; [8]) of the same molecule?
**A.** Its value is 17.00 ± 2.5 mM.

**Q.** What about the “FPG Treatment vs Vehicle Day 8” value (db/db mice; [8]) of the same molecule?
**A.** Its value is −30%^4.

**Q.** What about the “FPG Treatment vs Vehicle Day 18” value (db/db mice; [8]) of the same molecule?
**A.** The value was −38%^3.

**Q.** What about the “effect on fasting plasma glucose levels of db/db mice” value (db/db mice; after 8 days of treatment) of the same molecule?
**A.** Its value is “reduced the fasting plasma glucose levels”.

**Q.** And the “effect on fasting plasma glucose levels of db/db mice” value (db/db mice; after 18 days of treatment)?
**A.** Its value is “reduced the fasting plasma glucose levels”.

**Q.** And the “difference in body weight vs Vehicle group” value [4]?
**A.** Its value is “no difference in body weight”.

From patent US10172837B2, “Insulin sensitisers and methods of treatment” (NAIA Metabolic, Inc., priority 2007, dated 2019)
